Data on six compounds can be found in paper PMC4076177, “Soluble Phosphatidylserine Binds to Two Sites on Human Factor IXa in a Ca^2+ Dependent Fashion to Specifically Regulate Structure and Activity” (PLoS ONE, 2014).

The target in the test is T1, Human FIXa (Homo sapiens, UniProt P00740).
T1 construct: gene F9; purchased from Haematologic Technologies, no tag stated
Nature of the test: intrinsic fluorescence titration, single-site hyperbolic fit. Type of test: binding. The following applies: for Kd: read-out: Kd, μM (determined by monitoring change in intrinsic fluorescence). The source says:
intrinsic fluorescence titration, single-site hyperbolic fit on Human FIXa

T1 sequence (P00740 47-191): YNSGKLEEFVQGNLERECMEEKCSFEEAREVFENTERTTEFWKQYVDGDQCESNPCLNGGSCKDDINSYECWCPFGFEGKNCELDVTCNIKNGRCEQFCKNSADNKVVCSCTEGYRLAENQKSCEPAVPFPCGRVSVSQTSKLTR
T1 sequence (P00740 227-461): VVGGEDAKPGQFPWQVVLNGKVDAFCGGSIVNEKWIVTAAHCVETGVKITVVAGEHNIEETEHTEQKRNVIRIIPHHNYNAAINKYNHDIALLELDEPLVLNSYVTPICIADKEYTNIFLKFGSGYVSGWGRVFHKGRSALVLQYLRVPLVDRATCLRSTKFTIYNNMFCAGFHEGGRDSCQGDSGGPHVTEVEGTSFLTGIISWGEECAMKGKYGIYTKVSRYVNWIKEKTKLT

Turning to `CCCCCC(=O)OC[C@H](COP(=O)(O)OCCN)OC(=O)CCCCC` [C6PE], the Kd (commonly the concentration at which binding is half-saturated) turned out to be 66 ± 7 µM.
For the compound `CCCCCC(=O)OC[C@H](COP(=O)(O)OC[C@H](N)C(=O)O)OC(=O)CCCCC` [C6PS, 1,2-dicaproyl-sn-glycero-3-phospho-L-serine], the Kd stood at 1.3 ± 0.2 µM.
For `CCCCCC(=O)OC[C@H](COP(=O)(O)OC[C@@H](N)C(=O)O)OC(=O)CCCCC` [C6(D)PS], the Kd is 208 ± 18 µM.
For the compound `CCCCCC(=O)OC[C@H](COP(=O)([O-])OCC[N+](C)(C)C)OC(=O)CCCCC` [C6PC], the “Kd, μM (determined by monitoring change in intrinsic fluorescence)” value (5 mM CaCl2, 0.20 µM FIXa, 50 mM Tris, 150 mM NaCl, 0.6% PEG, pH 7.5, 22°C, unreliable (Figure 2 legend prints 2000 µM)) was determined as 1000 ± 45 µM.
For the compound `CCCCCC(=O)OC[C@H](COP(=O)(O)OCC(O)CO)OC(=O)CCCCC` (stereo partly drawn) [C6PG], the Kd was 307 ± 28.8 µM.
`CCCCCC(=O)OC[C@H](COP(=O)(O)O)OC(=O)CCCCC` [C6PA]: the Kd was 238 ± 42.7 µM.
